Assay results published in patent US9167821B2 (priority 2009, dated 2015).
Structures can show the parent of a compound that is named as a salt.

Legend:
[1] = for logp [a]: pH 2.3; for logp [c]: pH 7.8; for logp [b] / log P (HCOOH): pH 2.7
Excerpt: (§1) The determination is effected in the acidic range at pH 2.3 using 0.1% aqueous phosphoric acid and acetonitrile as eluents; linear gradient from 10% acetonitrile to 95% acetonitrile. • ^[b] The LC-MS determination in the acidic range is effected at pH 2.7 using 0.1% aqueous formic acid and acetonitrile (contains 0.1% formic acid) as eluents; linear gradient from 10% acetonitrile to 95% acetonitrile. • ^[c] The LC-MS determination in the neutral range is effected at pH 7.8 using 0.001 molar aqueous ammonium hydrogencarbonate solution and acetonitrile as eluents; linear gradient from 10% acetonitrile to 95% acetonitrile.
(§2) The calibration is effected with unbranched alkan-2-ones (having 3 to 16 carbon atoms) with known log P values (determination of the log P values using the retention times by linear interpolation between two successive alkanones).

Plasmopara viticola = assay: Plasmopara test (grapevine)/protective; assay type: in vivo; details: grapevine plants, protective spray, 10 ppm active ingredient, evaluation 6 days after inoculation, 0% = control, 100% = no infection; for pest or weed control at 10 ppm: Plasmopara viticola, 144 h, read-out: efficacy
Experimental: Plasmopara Test (Grapevine)/Protective
To prepare an appropriate active ingredient preparation, 1 part by weight of active ingredient is mixed with the stated amounts of solvent and emulsifier, and the concentrate is diluted with water to the desired concentration.
To test for protective efficacy, young plants are sprayed with the active ingredient preparation at the stated application rate. After the spray coating has dried on, the plants are inoculated with an aqueous spore suspension of Plasmopara viticola and then remain in an incubation cabinet at about 20° C. and 100% relative atmospheric humidity for 1 day. The plants are then placed in a greenhouse at approx. 21° C. and approx. 90% air humidity for 4 days. The plants are then moistened and placed in an incubation cabinet for 1 day.
Evaluation follows 6 days after the inoculation.

Phytophthora infestans = assay: whole plant or invertebrate; assay type: in vivo; details: for pest or weed control at 10 ppm: Phytophthora infestans, in Solanum lycopersicum, 72 h, read-out: efficacy

Excerpt for physchem: as §1, §2

For CCC#CCOc1cccc(C2CC(c3csc(C4CCN(C(=O)Cn5nc(C(F)F)cc5C(F)F)CC4)n3)=NO2)c1 (racemic) [I-34], the “logp [a]” value [1] was 3.83^[a] and the “logp [c]” value [1] was 3.74^[c];.

For C=CCOc1ccccc1C1CC(c2csc(C3CCN(C(=O)Cn4nc(C(F)F)cc4C(F)F)CC3)n2)=NO1 (centres unmarked) [I-14, 1-[4-(4-{5-[2-(Allyloxy)phenyl]-4,5-dihydro-1,2-oxazol-3-yl}-1,3-thiazol-2-yl)piperidin-1-yl]-2-[3,5-bis(difluoromethyl)-1H-pyrazol-1-yl]ethanone], the chromatographic logP (physchem; pH 2.7, logp [b]) was 3.63, the chromatographic logP (physchem; pH 7.8, logp [c]) was 3.65 and the pest or weed control at 10 ppm (Plasmopara viticola) was 100%. For the same molecule, the pest or weed control at 10 ppm (Phytophthora infestans) was 98%.

For CCC#CCOc1ccc(C2CC(c3csc(C4CCN(C(=O)Cn5nc(C(F)F)cc5C(F)F)CC4)n3)=NO2)cc1 (racemic) [I-47], the “logp [a]” value [1] was 3.76^[a] and the “logp [c]” value [1] was 3.74^[c];.

In the case of O=C(Cn1nc(C(F)F)cc1C(F)F)N1CCC(F)(c2nc(C3=NOC(c4ccccc4F)C3)cs2)CC1 (racemic) [I-4], the efficacy (Plasmopara viticola) is reported as 100% and the “logp [b]” value [1] is reported as 3.49^[b].

Molecule O=C(Cn1nc(C(F)F)cc1C(F)F)N1CCC(c2nc(C3=NOC(c4ccccc4O)C3)cs2)CC1 (centres unmarked) [I-9, 2-[3,5-Bis(difluoromethyl)-1H-pyrazol-1-yl]-1-(4-{4-[5-(2-hydroxyphenyl)-4,5-dihydro-1,2-oxazol-3-yl]-1,3-thiazol-2-yl}piperidin-1-yl)ethanone] has a chromatographic logP (physchem; pH 2.3) of 2.58, a chromatographic logP (physchem; pH 7.8, logp [c]) of 2.6 and a pest or weed control at 10 ppm (Plasmopara viticola) of 99%. For the same molecule, the pest or weed control at 10 ppm (Phytophthora infestans) was 96%.

In the case of CC(C)=CCOc1ccccc1C1CC(c2csc(C3CCN(C(=O)Cn4nc(C(F)F)cc4C(F)F)CC3)n2)=NO1 (centres unmarked) [I-20, 2-[3,5-Bis(difluoromethyl)-1H-pyrazol-1-yl]-1-{4-[4-(5-{2-[(3-methylbut-2-en-1-yl)oxy]phenyl}-4,5-dihydro-1,2-oxazol-3-yl)-1,3-thiazol-2-yl]piperidin-1-yl}ethanone], the chromatographic logP (physchem; pH 2.7, logp [b]) is reported as 4.19, the chromatographic logP (physchem; pH 7.8, logp [c]) is reported as 4.11 and the pest or weed control at 10 ppm (Plasmopara viticola) is reported as 98%. It also gave a pest or weed control at 10 ppm (Phytophthora infestans) of 95%.

With N=C(N)SCc1ccccc1C1CC(c2csc(C3CCN(C(=O)Cn4nc(C(F)F)cc4C(F)F)CC3)n2)=NO1 (centres unmarked) [2-{3-[2-(1-{[3,5-Bis(difluoromethyl)-1H-pyrazol-1-yl]acetyl}piperidin-4-yl)-1,3-thiazol-4-yl]-4,5-dihydro-1,2-oxazol-5-yl}benzyl imidothiocarbamate] the “log P (HCOOH)” value [1] was 1.68.

In the case of O=C(CC(F)(F)F)Oc1ccccc1C1CC(c2csc(C3CCN(C(=O)Cn4nc(C(F)F)cc4C(F)F)CC3)n2)=NO1 (racemic) [I-36], the “logp [a]” value [1] is reported as 9.43^[a]; and the “logp [c]” value [1] is reported as 3.52^[c].

For O=C(Oc1ccccc1C1CC(c2csc(C3CCN(C(=O)Cn4nc(C(F)F)cc4C(F)F)CC3)n2)=NO1)C1CC1 (racemic) [I-33], the “logp [a]” value [1] was 3.34^[a] and the “logp [c]” value [1] was 3.28^[c];.

For “tert-Butyl 4-[4-(5-{2-[(cyclopropylmethoxy)carbonyl]phenyl}-4,5-dihydro-1,2-oxazol-3-yl)-1,3-thiazol-2-yl]piperidine-1-carboxylate [X-a-10]”, the “log P (HCOOH)” value [1] was 4.99.

In the case of CC#CCOc1ccccc1C1CC(c2csc(C3CCN(C(=O)Cn4nc(C(F)F)cc4C(F)F)CC3)n2)=NO1 (racemic) [I-35], the efficacy (Phytophthora infestans; tomato plants, protective spray, 10 ppm active ingredient, evaluation 3 days after inoculation, 0% = control, 100% = no infection) is reported as 88%, the “logp [a]” value [1] is reported as 3.65^[a] and the “logp [c]” value [1] is reported as 3.55^[c];.

O=C(Cn1nc(C(F)F)cc1C(F)F)N1CCC(c2nc(C3=NOC(c4ccccc4[N+](=O)[O-])C3)cs2)CC1 (centres unmarked) [I-10, 2-[3,5-Bis(difluoromethyl)-1H-pyrazol-1-yl]-1-(4-{4-[5-(2-nitrophenyl)-4,5-dihydro-1,2-oxazol-3-yl]-1,3-thiazol-2-yl}piperidin-1-yl)ethanone] showed a chromatographic logP (physchem; pH 2.7, logp [b]) of 3.19, a pest or weed control at 10 ppm (Plasmopara viticola) of 100% and a pest or weed control at 10 ppm (Phytophthora infestans) of 97%.

For COCCOc1ccccc1C1CC(c2csc(C3CCN(C(=O)Cn4nc(C(F)F)cc4C(F)F)CC3)n2)=NO1 (centres unmarked) [I-19, 2-[3,5-Bis(difluoromethyl)-1H-pyrazol-1-yl]-1-[4-(4-{5-[2-(2-methoxyethoxy)phenyl]-4,5-dihydro-1,2-oxazol-3-yl}-1,3-thiazol-2-yl)piperidin-1-yl]ethanone], the chromatographic logP (physchem; pH 2.7, logp [b]) was 3.26, the chromatographic logP (physchem; pH 7.8, logp [c]) was 3.18 and the pest or weed control at 10 ppm (Plasmopara viticola) was 96%. It also gave a pest or weed control at 10 ppm (Phytophthora infestans) of 96%.

In the case of CC#CCOc1ccc(C2CC(c3csc(C4CCN(C(=O)Cn5nc(C(F)F)cc5C(F)F)CC4)n3)=NO2)cc1 (racemic) [I-48], the “logp [a]” value [1] is reported as 3.43^[a] and the “logp [c]” value [1] is reported as 3.42^[c];.

With O=C(Cn1nc(C(F)F)cc1C(F)F)N1CCC(c2nc(C=NO)cs2)CC1 [2-(1-{[3,5-Bis(difluoromethyl)-1H-pyrazol-1-yl]acetyl}piperidin-4-yl)-1,3-thiazole-4-carbaldehyde oxime] the chromatographic logP (physchem; pH 2.7, log P (HCOOH)) was 1.93 and the “log P (HCOOH)” value [1] was 1.98.

For CC#CCOc1cccc(F)c1C1CC(c2csc(C3CCN(C(=O)Cn4nc(C(F)F)cc4C(F)F)CC3)n2)=NO1 (racemic) [I-29], the “logp [a]” value [1] was 3.46^[a]; and the “logp [c]” value [1] was 3.42^[c].

With C#CCOc1cccc(F)c1C1CC(c2csc(C3CCN(C(=O)Cn4nc(C(F)F)cc4C(F)F)CC3)n2)=NO1 (racemic) [I-30] the “logp [a]” value [1] was 3.18^[a]; and the “logp [c]” value [1] was 3.15^[c].

In the case of C=C(C)COc1ccccc1C1CC(c2csc(C3CCN(C(=O)Cn4nc(C(F)F)cc4C(F)F)CC3)n2)=NO1 (centres unmarked) [I-18, 2-[3,5-bis(difluoromethyl)-1H-pyrazol-1-yl]-1-{4-[4-(5-{2-[(2-methylprop-2-en-1-yl)oxy]phenyl}-4,5-dihydro-1,2-oxazol-3-yl)-1,3-thiazol-2-yl]piperidin-1-yl}ethanone], the chromatographic logP (physchem; pH 2.7, logp [b]) is reported as 3.96 and the chromatographic logP (physchem; pH 7.8, logp [c]) is reported as 3.92.

In the case of O=C(Cn1nc(C(F)F)cc1C(F)F)N1CCC(c2nc(C3=NOC(c4ccccc4COCC(F)(F)F)C3)cs2)CC1 (racemic) [I-52], the “logp [b]” value [1] is reported as 3.4^[b] and the “logp [c]” value [1] is reported as 3.6^[c];.

With O=C(Oc1ccccc1C1CC(c2csc(C3CCN(C(=O)Cn4nc(C(F)F)cc4C(F)F)CC3)n2)=NO1)C1CCCCC1 (centres unmarked) [I-32, 2-{3-[2-(1-{[3,5-bis(difluoromethyl)-1H-pyrazol-1-yl]acetyl}piperidin-4-yl)-1,3-thiazol-4-yl]-4,5-dihydro-1,2-oxazol-5-yl}phenyl cyclohexanecarboxylate] the chromatographic logP (physchem; pH 2.3) was 4.27 and the chromatographic logP (physchem; pH 7.8, logp [c]) was 4.19.

Molecule COC(=O)c1ccccc1C1CC(c2csc(C3CCN(C(=O)OC(C)(C)C)CC3)n2)=NO1 (centres unmarked) [X-a-8, tert-butyl 4-(4-{5-[2-(methoxycarbonyl)phenyl]-4,5-dihydro-1,2-oxazol-3-yl}-1,3-thiazol-2-yl)piperidine-1-carboxylate] has a chromatographic logP (physchem; pH 2.7, log P (HCOOH)) of 4.14.

Oc1ccccc1C1CC(c2csc(C3CCNCC3)n2)=NO1 (centres unmarked) [XII-5, 4-{4-[5-(2-Hydroxyphenyl)-4,5-dihydro-1,2-oxazol-3-yl]-1,3-thiazol-2-yl}piperidinium chloride] showed a chromatographic logP (physchem; pH 2.7, log P (pH2.7)) of 0.69.

For CC(C)(C)OC(=O)N1CCC(F)(c2nc(C=NO)cs2)CC1 (mixture of isomers) [tert-Butyl 4-fluoro-4-{4-[(E/Z)-(hydroxyimino)methyl]-1,3-thiazol-2-yl}piperidine-1-carboxylate], the “log P (HCOOH)” value [1] was 2.53.

In the case of O=Cc1ccccc1C1CC(c2csc(C3CCNCC3)n2)=NO1 (centres unmarked) [XII-3, 2-{3-[2-(Piperidin-4-yl)-1,3-thiazol-4-yl]-4,5-dihydro-1,2-oxazol-5-yl}benzaldehyde hydrochloride], the chromatographic logP (physchem; pH 2.7, log P (HCOOH)) is reported as 0.76.

For CCS(=O)(=O)Cc1ccccc1C1CC(c2csc(C3CCN(C(=O)Cn4nc(C(F)F)cc4C(F)F)CC3)n2)=NO1 (racemic) [I-53], the “logp [b]” value [1] was 2.76^[b].

With O=C(O)c1ccccc1C1CC(c2csc(C3CCN(C(=O)Cn4nc(C(F)F)cc4C(F)F)CC3)n2)=NO1 (centres unmarked) [2-{3-[2-(1-{[3,5-Bis(difluoromethyl)-1H-pyrazol-1-yl]acetyl}piperidin-4-yl)-1,3-thiazol-4-yl]-4,5-dihydro-1,2-oxazol-5-yl}benzoic acid] the chromatographic logP (physchem; pH 2.7, log P (HCOOH)) was 2.63.

For CC(C)(C)OC(=O)N1CCC(c2nc(C3=NOC(c4ccccc4O)C3)cs2)CC1 (centres unmarked) [X-a-5, tert-Butyl 4-{4-[5-(2-hydroxyphenyl)-4,5-dihydro-1,2-oxazol-3-yl]-1,3-thiazol-2-yl}piperidine-1-carboxylate], the chromatographic logP (physchem; pH 2.7, log P (pH2.7)) was 3.22.

Work on COCCOCc1ccccc1C1CC(c2csc(C3CCN(C(=O)Cn4nc(C(F)F)cc4C(F)F)CC3)n2)=NO1 (centres unmarked) [I-11, 2-[3,5-Bis(difluoromethyl)-1H-pyrazol-1-yl]-1-{4-[4-(5-{2-[(2-methoxyethoxy)methyl]phenyl}-4,5-dihydro-1,2-oxazol-3-yl)-1,3-thiazol-2-yl]piperidin-1-yl}ethanone] yielded a chromatographic logP (physchem; pH 2.7, logp [b]) of 3.21.

CC(C)(C)OC(=O)N1CCC(c2nc(C3=NOC(c4c(F)cccc4C=O)C3)cs2)CC1 (centres unmarked) [X-a-13, tert-Butyl 4-{4-[5-(2-fluoro-6-formylphenyl)-4,5-dihydro-1,2-oxazol-3-yl]-1,3-thiazol-2-yl}piperidine-1-carboxylate] showed a chromatographic logP (physchem; pH 2.7, log P (HCOOH)) of 3.62.

In the case of CC(C)(C)OC(=O)N1CCC(c2nc(C3=NOC(c4ccccc4C=O)C3)cs2)CC1 (centres unmarked) [X-a-3, tert-Butyl 4-{4-[5-(2-formylphenyl)-4,5-dihydro-1,2-oxazol-3-yl]-1,3-thiazol-2-yl}piperidine-1-carboxylate], the chromatographic logP (physchem; pH 2.7, log P (HCOOH)) is reported as 3.76.

With CCCCOCc1ccccc1C1CC(c2csc(C3CCN(C(=O)Cn4nc(C(F)F)cc4C(F)F)CC3)n2)=NO1 (racemic) [I-16] the “logp [b]” value [1] was 4.24^[b].
